Article PMC8950700 (Pharmaceuticals, 2022)

What was measured:
[1] = tested on: A/California/04/2009 (H1N1); assay: microbe, parasite or virus in culture; assay type: cell-based; details: read-out: IC50 (50% Inhibitory Concentration) H1N1
H5N1N295S virus [2] = assay type: cell-based, influenza A virus; details: read-out: IC50 (50% Inhibitory Concentration) H5N1N295S
H5N1V116A virus [3] = assay type: cell-based, influenza A virus
H1N1 virus [4] = assay type: cell-based
H1N1 virus [5] = details: mouse, in vivo
H1N1 virus [6] = assay type: cell-based, influenza A virus; details: 5 µM
H5N1wild virus [7] = assay type: cell-based
H5N1V116A virus [8] = assay type: cell-based, influenza A virus; details: read-out: IC50 (50% Inhibitory Concentration) H5N1V116A
H5N1N295S virus [9] = assay type: cell-based, influenza A virus
[10] = tested on: A/chicken/Egypt/B13825A/2017 (H5N1wild); assay: microbe, parasite or virus in culture; assay type: cell-based; details: read-out: IC50 (50% Inhibitory Concentration) H5N1wild
H5N1wild virus [11] = details: mouse, in vivo
H5N1V116A virus [12] = assay type: cell-based, influenza A virus; remark: listed apart in the source
in vitro = details: dog
H5N1wild virus [13] = assay: microbe, parasite or virus in culture; assay type: cell-based
H5N1N295S virus [14] = assay type: cell-based, influenza A virus; remark: listed apart in the source

Compound: CC(=O)N[C@H]1[C@H]([C@H](O)[C@H](O)CO)OC(C(=O)O)=C[C@@H]1N=C(N)N [zanamivir, reference compound]
- IC50 [1]: 1.65 µM
- IC50 (H5N1N295S virus [2]): 15 µM
- viral inhibition in the count of plaques, H5N1V116A (H5N1V116A virus [3]): 60%
- inhibition in the viral HA titer, H1N1 (H1N1 virus [4]): not more than 80%
- mortality after infection with H1N1 (H1N1 virus [5]): 40%
- viral titer in lung tissue (TCID50), H1N1 (H1N1 virus [5]): reduced the titration
- virus shedding in the nasal wash (EID50), H1N1 (H1N1 virus [5]): significantly reduced the viral titer
- viral inhibition in the count of plaques, H1N1 (H1N1 virus [6]): 96.5%
- inhibition in the viral HA titer, H5N1wild (H5N1wild virus [7]): not more than 25%
- IC50 (H5N1V116A virus [8]): 127 µM
- viral inhibition in the count of plaques, H5N1N295S (H5N1N295S virus [9]): 31%
- IC50 [10]: 10.4 µM
- viral titer in lung tissue (TCID50), H5N1wild (H5N1wild virus [11]): reduced the titration
- inhibition in the viral HA titer, H5N1V116A (H5N1V116A virus [12]): not more than 80%
- CC50 at 72 h (in vitro): 589 µM
- viral inhibition in the count of plaques, H5N1wild (H5N1wild virus [13]): 69.2%
- inhibition in the viral HA titer, H5N1N295S (H5N1N295S virus [14]): not more than 25%
